Literature values, collected in patent publication US12472264B2, “Cell-penetrating peptides” (Oxford University Innovation Limited, priority 2018, dated 2025).

System: exon 51
Settings: background statement on FDA accelerated approval, September 2016

eteplirsen
levels of dystrophin restoration: approximately 1 % of normal dystrophin levels
